The text below walks through data of publication PMC7725843, “Structural and biochemical analyses of an aminoglycoside 2′-N-acetyltransferase from Mycolicibacterium smegmatis” (Scientific Reports, 2020).

In test [1] the target is T1, AAC(2′)-Id (Mycolicibacterium smegmatis, UniProt P94968).
T1 construct: full-length ORF (630 bp), codon-optimised synthetic gene in pET-28a(+), E. coli BL21(DE3); N-terminal His-tag cut with thrombin; homodimer
The test is described as follows: X-ray crystal structure. It is filed as binding. The note with it: ternary complexes with gentamicin, sisomicin, neomycin or paromomycin; 5 mM CoA.

In test [2] the target is T1, AAC(2′)-Id. As to the kind of experiment: DTNB assay of CoA release at […] nm, Michaelis-Menten fit. It is filed as biochemical. As to conditions: 300 μM acetyl-CoA, 50 mM MES pH 6.5, 200 μM DTNB, 25 °C.

Each structure is given as a SMILES string.

T1 sequence (P94968 whole entry): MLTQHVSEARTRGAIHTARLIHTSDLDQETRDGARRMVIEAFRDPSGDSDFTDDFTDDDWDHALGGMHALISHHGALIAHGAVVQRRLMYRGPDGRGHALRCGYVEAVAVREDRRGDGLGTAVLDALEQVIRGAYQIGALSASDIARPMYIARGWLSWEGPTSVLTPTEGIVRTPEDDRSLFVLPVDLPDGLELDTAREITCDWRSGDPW

As for `CC(C)(COP(=O)(O)OP(=O)(O)OC[C@H]1O[C@@H](n2cnc3c(N)ncnc32)[C@H](O)[C@@H]1OP(=O)(O)O)[C@@H](O)C(=O)NCCC(=O)NCCS` [CoA], the X-ray crystal structure entry in test [1] was “chain B contains only a CoA molecule”.

As for `CN[C@@H]1[C@@H](O)[C@@H](O[C@@H]2[C@@H](O)[C@H](O[C@H]3OC(CN)=CC[C@H]3N)[C@@H](N)C[C@H]2N)OC[C@]1(C)O` [Sisomicin], the “Km (μM)” value in test [2] is reported as “(7.30 ± 0.58) × 10 μM”.
